Assay results: ChEMBL document CHEMBL1154905, “The taiwaniaquinoids: a review” (J Nat Prod, 2010)

Key:
human gammaherpesvirus 4 [1] = experiment: Inhibition of TPA-induced EBV early antigen activation at 32 uM
human gammaherpesvirus 4 [2] = experiment: Inhibition of TPA-induced EBV early antigen activation at 16 uM
human gammaherpesvirus 4 [3] = experiment: Inhibition of TPA-induced EBV early antigen activation at 3.2 uM
human gammaherpesvirus 4 [4] = experiment: Inhibition of TPA-induced EBV early antigen activation at 0.32 uM
KB = experiment: Cytotoxicity against human KB cells; format: functional, cell-based
Aromatase [5] = biological target: T1, Aromatase (Homo sapiens, UniProt P11511); experiment: Inhibition of human recombinant aromatase at 0.6 uM
T1 sequence (P11511 whole entry): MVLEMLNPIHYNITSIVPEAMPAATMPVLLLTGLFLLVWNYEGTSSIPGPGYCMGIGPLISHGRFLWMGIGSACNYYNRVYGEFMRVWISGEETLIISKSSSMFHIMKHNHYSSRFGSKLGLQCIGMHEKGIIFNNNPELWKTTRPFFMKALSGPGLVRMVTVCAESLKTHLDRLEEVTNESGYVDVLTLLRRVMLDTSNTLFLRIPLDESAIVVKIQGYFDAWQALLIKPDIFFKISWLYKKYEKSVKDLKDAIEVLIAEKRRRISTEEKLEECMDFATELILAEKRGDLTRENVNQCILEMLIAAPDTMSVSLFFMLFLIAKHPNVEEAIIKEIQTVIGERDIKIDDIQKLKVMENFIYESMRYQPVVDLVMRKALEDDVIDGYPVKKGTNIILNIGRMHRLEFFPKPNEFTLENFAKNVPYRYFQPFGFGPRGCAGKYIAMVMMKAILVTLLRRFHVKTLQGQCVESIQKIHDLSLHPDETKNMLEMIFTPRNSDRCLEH

Aromatase [6] = biological target: T1, Aromatase; experiment: Inhibition of human recombinant aromatase at 10 uM
Aromatase [7] = biological target: T1, Aromatase; experiment: Inhibition of human recombinant aromatase at 3 uM
Aromatase [8] = biological target: T1, Aromatase; experiment: Inhibition of human recombinant aromatase at 0.3 uM
Aromatase [9] = biological target: T1, Aromatase; experiment: Inhibition of human recombinant aromatase at 1 uM

## CC(C)c1cc(C=O)c2c(c1O)[C@H](O)[C@H]1C(C)(C)CCC[C@]21C
Human gammaherpesvirus 4 [1]
  inhibition: 85.9%
Human gammaherpesvirus 4 [2]
  inhibition: 32%
Human gammaherpesvirus 4 [3]
  inhibition: 16.7%
Human gammaherpesvirus 4 [4]
  inhibition: 0%

## CC1=C(/C=C/C(C)=C/C=C/C(C)=C/C=C/C=C(C)/C=C/C=C(C)/C=C/C2=C(C)CCCC2(C)C)C(C)(C)CCC1
Human gammaherpesvirus 4 [1]
  inhibition: 91%
Human gammaherpesvirus 4 [2]
  inhibition: 66%
Human gammaherpesvirus 4 [3]
  inhibition: 18%
Human gammaherpesvirus 4 [4]
  inhibition: 0%

## CC[C@@H](C)CC[C@H]1[C@@H](C)CC[C@H]2C(C)(C)CCC[C@]12C
Human gammaherpesvirus 4 [1]
  inhibition: 92.3%
Human gammaherpesvirus 4 [2]
  inhibition: 51.9%
Human gammaherpesvirus 4 [3]
  inhibition: 22.2%
Human gammaherpesvirus 4 [4]
  inhibition: 4.5%

## COc1cc([C@@H]2c3cc4c(cc3[C@@H](O[C@@H]3O[C@@H]5CO[C@@H](C)O[C@H]5[C@H](O)[C@H]3O)[C@H]3COC(=O)[C@H]23)OCO4)cc(OC)c1O [ETOPOSIDE]
KB
  EC50: 1.1 µM

## C[C@]12CCC(=O)C(O)=C1CC[C@@H]1[C@@H]2CC[C@]2(C)C(=O)CC[C@@H]12 [FORMESTANE]
Aromatase [5]
  inhibition at 0.6 µM: 63.7%

## CC(=O)N1CCN(c2ccc(OCC3COC(Cn4ccnc4)(c4ccc(Cl)cc4Cl)O3)cc2)CC1 (configuration not stated) [KETOCONAZOLE]
Aromatase [6]
  inhibition at 10 µM: 92.5%
Aromatase [7]
  inhibition at 3 µM: 83.8%
Aromatase [8]
  inhibition at 0.3 µM: 89.3%

## N#Cc1ccc(C(c2ccc(C#N)cc2)n2cncn2)cc1 [LETROZOLE]
Aromatase [6]
  inhibition at 10 µM: 87.9%
Aromatase [7]
  inhibition at 3 µM: 87.5%
Aromatase [8]
  inhibition at 0.3 µM: 81.7%

## CC(=O)Oc1c(C(C)C)cc(C=O)c2c1[C@H](OC(C)=O)[C@H]1C(C)(C)CCC[C@]21C [STANDISHINAL DIACETATE]
Aromatase [9]
  inhibition at 1 µM: 38.6%
Human gammaherpesvirus 4 [1]
  inhibition: 84.5%
Human gammaherpesvirus 4 [2]
  inhibition: 30.5%
Human gammaherpesvirus 4 [3]
  inhibition: 11.1%
Human gammaherpesvirus 4 [4]
  inhibition: 0%

## CC(C)c1c(O)c2c(c3c1OCO3)[C@@]1(C)CCCC(C)(C)[C@@H]1[C@H]2C=O [TAIWANIAQUINOL A]
KB
  EC50: 8.3 µM

## COc1c(O)c2c(c(O)c1C(C)C)C(=O)[C@@H]1C(C)(C)CCC[C@]21C [TAIWANIAQUINOL B]
KB
  EC50: > 10 µM

## COc1c(O)c2c(c(O)c1C(C)C)[C@@H](C=O)[C@H]1C(C)(C)CCC[C@]21C [TAIWANIAQUINOL C]
KB
  EC50: 8.1 µM

## COc1c(O)c2c(c(O)c1C(C)C)C(C=O)=C1C(C)(C)CCC[C@@]12C [TAIWANIAQUINOL D]
KB
  EC50: 3.5 µM

## COc1c(O)c2c(c(O)c1C(C)C)C(=O)[C@H]1C(C)(C)CCC[C@]21C [TAIWANIAQUINOL E]
KB
  EC50: > 10 µM

## COc1c(O)c2c(c(O)c1C(C)C)C(=O)[C@@H]1C(C)(C)C(=O)CC[C@]21C [TAIWANIAQUINOL F]
KB
  EC50: > 10 µM

## CC(C)C1=C(O)C(=O)C2=C(C1=O)C(C=O)=C1C(C)(C)CCC[C@]21C [TAIWANIAQUINONE D]
KB
  EC50: 7.2 µM

## COC1=C(C(C)C)C(=O)C2=C(C1=O)[C@@]1(C)CCCC(C)(C)[C@@H]1C2 [TAIWANIAQUINONE G]
KB
  EC50: > 10 µM

## COC1=C(C(C)C)C(=O)C2=C(C1=O)[C@@]1(C)CCCC(C)(C)C1=C2 [TAIWANIAQUINONE H]
KB
  EC50: > 10 µM

## COC1=C(C(C)C)C(=O)C2=C(C1=O)[C@@]1(C)CCCC(C)(C)[C@@H]1[C@H]2C=O [TAIWANIAQUINONE]
KB
  EC50: 4.4 µM

## CC(C)C1=C(O)C(=O)C2=C(C1=O)[C@H](C=O)[C@H]1C(C)(C)CCC[C@]21C [TAIWANIQUINONE A]
KB
  EC50: 6.9 µM

## COC(=O)[C@H]1C2=C(C(=O)C(O)=C(C(C)C)C2=O)[C@@]2(C)CCCC(C)(C)[C@H]12 [TAIWANIQUINONE E]
KB
  EC50: > 10 µM
